This is an account of results in patent US20190350236A1, “METHOD OF PROCESSING SHELLFISH AND RESULTING COMPOSITIONS” (SANFORD LIMITED, priority 2016, published 2019).

For assay [1], the system named is activated neutrophils. In words: Inhibition of superoxide production by PMA-activated neutrophils (WST-1 reduction), anti-inflammatory activity. The class given is cell-based. The note with it: Rattus norvegicus, Neutrophil. Here is the method: The relative anti-inflammatory properties of the test samples were determined by establishing their abilities to inhibit the activation of neutrophils as measured by the production of superoxide. The efficacy of the test samples was referenced against Aspirin, as well as an un-supplemented control group.
Samples 1, 2 and 3 (actually numbered samples 3, 4 and 5 in the above table) were produced from the same batch of mussels. Each of the above test samples was extracted with ethanol at a ratio of 1:10 (w:v) and the residues were then extracted with distilled water at the same ratio, so that the activity of both the lipid rich or hydrophobic fraction and the hydrophilic or aqueous fraction of each of the test samples could be tested. The experimental procedure for determining the effects of the test samples on inflammation was based on the methods described in Tan, A S and Berridge, MV (2000). Superoxide produced by activated neutrophils efficiently reduces the tetrazolium salt, WST-1 to produce a soluble formazan: a simple colorimetric assay for measuring respiratory burst activation and for screening of anti-inflammatory agents. J Immunol. Meth. 238: 59-68. Neutrophils were harvested from rat whole blood and activated with phorbol 12-myristate 13-acetate (PMA). The activated neutrophils were then incubated and cultured in the presence of each of the test samples and the controls. The reduction of the WST-1 dye was measured to determine the products of superoxide. The control group was set at 100% activity (0% inhibition) and the inhibition of all samples were compared to this reference.
The ethanol and water extracts (lipid rich and hydrophilic fractions) from each of the test samples were tested at 400 μg/ml for their anti-inflammatory activity based on the inhibition of superoxide by activated neutrophils. The yields of each extraction were used along with the activity of each to obtain an estimate for the total activity within each of the test samples for the two fractions.

Assay [2] can be described thus: DPPH scavenging method (antioxidant activity). The conditions noted are these: reference value used for FIG. 8. Here is the method: The antioxidant activity of each of the samples was tested using the DPPH scavenging method (i.e. by using the stable free radical 2,2-Diphenyl-1-(2,4,6-trinitrophenyl) hydrazyl as a substrate). Whilst the DPPH method is not a direct anti-inflammatory assay, antioxidant activity has been an indication of anti-inflammatory activity in many study cases. The DPPH solution was prepared […] and kept in the freezer in the dark before use. The positive control was ascorbic acid prepared as 0.1 mg/ml in a buffer containing citric acid and NaHPO4 (pH 5). Equal amounts of sample solution and DPPH solution were added together, and the assay tube or plate was incubated for 30 minutes in the dark, followed by absorbance measurement at 517 nm on a spectrophotometer. In the blank control experiment of each sample, DPPH was replaced with ethanol. In the DPPH blank control experiment, the sample was replaced with the media (water or solvent) the sample was prepared in.
The scavenging activity (DPPH inhibition %) is calculated by percentage of the absorbance from the sample versus the DPPH only:
All samples were tested at a concentration of 10 mg/ml.

Consider `CC(=O)Oc1ccccc1C(=O)O` [Aspirin], for which the IC50 in assay [1] (reference value used for FIG. 7, read-out: IC50 of aspirin equivalent) was found to be 400 µg/mL. In assay [1] (reference, 100 μg/ml), this compound yielded an inhibition at 100 µg/mL of 16.5%. In addition, the inhibition at 200 µg/mL in assay [1] (reference, 200 μg/ml) is 48.1%. The same compound showed an inhibition at 400 µg/mL in assay [1] (reference, 400 μg/ml) of 50.2%.
With Vitamin E, the “IC50 of Vitamin E equivalent” value in assay [2] came out at 9.26 µg/mL.
